# Publication PMC12670160, “A drug-repurposing screen of FDA- and EMA-approved drugs identifies two NF-κB inhibitors active against eumycetoma” (Journal of Antimicrobial Chemotherapy, 2025)
# Counter-ions that a name gives are not always drawn. Like-named read-outs stand apart in the source and are kept apart here.
# Experiments:
# [1] = test system: M. mycetomatis strain mm55; settings: 96 h, 2 µM
# [2] = test system: M. mycetomatis; experiment: In vitro susceptibility, averages over M. mycetomatis isolates (average metabolic activity at 2 µM, mean MIC); type: cell-based; settings: Madurella mycetomatis, 96 h, 4 days at 37°C, CellTiter-Glo, average of 3 isolates, 20% or below = inhibition
# Procedure: M. mycetomatis isolate MM55 was used to screen the Oncode library. This strain was kindly provided by Prof. […] The three M. mycetomatis isolates were identified by ITS sequencing and maintained at −80°C at Erasmus MC. Prior to in vitro screening, isolates were cultured on Sabouraud agar plates (BD, Erembodegem, Belgium) at 37°C.
# The Oncode Drug Repurposing library was based on the drug repurposing library from the Drug Repurposing Hub of the Broad Institute and recreated by the Oncode institute.[13] […] Each well of the 384-well plates contained 0.6 µL of a 200 µM stock concentration of compound, resulting in a final concentration of 2 µM when the fungus was added. […] Furthermore, this concentration could also be reached in the G. mellonella larvae.[8],[11] The prepared 384-well plates were transferred on dry ice to the Erasmus MC and stored at −80°C until they were screened.
# Each plate also contained a growth control (60 µL of M. mycetomatis hyphal suspension, plus 0.6 µL of DMSO) and a negative control (60 µL of culture medium, plus 0.6 µL of DMSO). Plates were then incubated for 4 days at 37°C, after which 30 µL of CellTiter-Glo 3D Cell Viability reagent was added to every well.[19] After 25 min of incubation at room temperature, the luminescence was measured with a CytoFluor Series 4000 luminometer (PerSeptive Biosystems, Framingham, MA, USA). To determine the metabolic activity, the following formula was used:
# Percentagemetabolicactivity=(Absorbancetestluminensence−AbsorbanceNCluminensence/AbsorbanceGCluminensence−AbsorbanceNCluminensence)×100
# where, GC is growth control and NC is negative control. The luminescence measured for the GC is considered as 100% metabolic activity. The luminescence for the NC is considered as 0% metabolic activity.
# [3] = test system: M. mycetomatis strain mm55; experiment: IC50 and MIC determination, CellTiter-Glo, strain mm55; type: cell-based, Madurella mycetomatis; settings: Madurella mycetomatis; for IC50: concentration inhibiting 50% of fungal hyphae growth; for MIC: concentration with complete growth inhibition
# [4] = test system: M. mycetomatis strain P1; experiment: IC50 and MIC determination, CellTiter-Glo, strain P1; type: cell-based, Madurella mycetomatis; settings: Madurella mycetomatis, P1
# [5] = test system: M. mycetomatis strain I1; experiment: IC50 and MIC determination, CellTiter-Glo, strain I1; type: cell-based, Madurella mycetomatis; settings: Madurella mycetomatis, I1
Compound,% viability ([1]; m. mycetomatis hyphae),other results
"O=C(O)C[C@H]1CC[C@H](c2ccc(-c3ccc(Nc4ccc(C(F)(F)F)nc4)cn3)cc2)CC1 [ONC0001945, pradigastat]",103.8%,–
"CS[C@H]1SC[C@H]2C(=O)N(C)[C@@H](C(C)C)C(=O)OC[C@@H](NC(=O)c3cnc4ccccc4n3)C(=O)N[C@@H](C)C(=O)N(C)[C@@H]1C(=O)N(C)[C@@H](C(C)C)C(=O)OC[C@@H](NC(=O)c1cnc3ccccc3n1)C(=O)N[C@@H](C)C(=O)N2C [ONC0004195, echinomycin]",114.7%,–
"CC(C)(CO)c1cc2cc(NC(=O)C3(c4ccc5c(c4)OC(F)(F)O5)CC3)c(F)cc2n1C[C@@H](O)CO [ONC0004399, vx661]",112.4%,–
"CC(C)(O)CNc1nc(Nc2ccnc(C(F)(F)F)c2)nc(-c2cccc(C(F)(F)F)n2)n1 [ONC0001138, enasidenib]",67.01%,–
"CCC(=O)O[C@@H]1CC(=O)O[C@H](C)C/C=C/C=C/[C@H](O)[C@H](C)C[C@H](CC=O)[C@H](O[C@@H]2O[C@H](C)[C@@H](O[C@H]3C[C@@](C)(O)[C@@H](OC(=O)CC)[C@H](C)O3)[C@H](N(C)C)[C@H]2O)[C@H]1OC [ONC0000323, midecamycin]",88.92%,–
"Cc1cc(Nc2cc(N3CCN(C)CC3)nc(Sc3ccc(NC(=O)C4CC4)cc3)n2)[nH]n1 [ONC0004696, vx680 mk0457 tozasertib]",120.2%,–
"CC[C@@]1(O)C(=O)OCc2c1cc1n(c2=O)Cc2cc3cc(O)ccc3nc2-1 [ONC0005199, 10hydroxycamptothecin]",143.5%,–
Clc1ccc(C(Cn2ccnc2)OCc2ccsc2Cl)c(Cl)c1 (centres unmarked) [Tioconazole],–,activity at 2 µM [2]: 3.2%; IC50 [3]: 1.24 µM; MIC [3]: 2 µM; IC50 [4]: 0.39 µM; MIC [4]: 0.5 µM; IC50 [5]: 0.33 µM; MIC [5]: 0.5 µM
C=C(c1ccccc1OCc1cccc(Cl)c1)n1ccnc1 [Cloconazole HCl],–,activity at 2 µM [2]: 1.7%; IC50 [3]: 0.85 µM; MIC [3]: 1 µM; IC50 [4]: 0.74 µM; MIC [4]: 1 µM; IC50 [5]: 0.41 µM; MIC [5]: 0.5 µM
"COc1cc2c(c(OC)c1OC)-c1ccc(OC)c(=O)cc1[C@@H](NC(C)=O)CC2 [ONC0000317, colchicine]",73.45%,–
"COc1cccc([C@]2(O)CCCC[C@H]2CN(C)C)c1 [ONC0004178, tramadol hydrochloride]",135.3%,–
"CC[C@H]1OC(=O)[C@H](C)[C@@H](O[C@H]2C[C@@](C)(OC)[C@@H](O)[C@H](C)O2)[C@H](C)[C@@H](O[C@@H]2O[C@H](C)C[C@H](N(C)C)[C@H]2O)[C@](C)(O)C[C@@H](C)[C@@H]2N[C@@H](COCCOC)O[C@H]([C@H]2C)[C@]1(C)O [ONC0005551, dirithromycin]",98.9%,–
"Cc1cnc(Nc2ccc(F)cc2Cl)nc1-c1c[nH]c(C(=O)N[C@H](CO)c2cccc(Cl)c2)c1 [ONC0005411, vx11e]",117%,–
C=C1CCN([C@H](C)[C@](O)(Cn2cncn2)c2ccc(F)cc2F)CC1 [Efinaconazole],–,activity at 2 µM [2]: 0%; IC50 [3]: 0.04 µM; MIC [3]: 0.06 µM; IC50 [4]: < 0.03 µM; MIC [4]: 0.03 µM; IC50 [5]: 0.05 µM; MIC [5]: 0.06 µM
"COc1cc(NC(=O)Nc2cccc(CNC(=O)O[C@H]3CCOC3)c2)ccc1-c1cnco1 [ONC0001842, merimepodib]",78.29%,–
"CC(C)NCCCn1c(Sc2cc3c(cc2I)OCO3)nc2c(N)ncnc21 [ONC0002276, puh71]",67.16%,–
"CNCc1ccc(-c2cc(-c3nc(-c4ccc(S(=O)(=O)C(C)C)cc4)cnc3N)on2)cc1 [ONC0005048, ve822]",77.72%,–
"CC1(C)CN(C(=O)c2ccc(-c3cccc4nc(NC(=O)C5CC5)nn34)cc2)C1 [ONC0001278, solcitinib]",60.54%,–
"CC[C@@](C)(Nc1ccnc(-c2c[nH]c3ncccc23)n1)C(=O)NCC(F)(F)F [ONC0001022, decernotinib]",66.72%,–
"C[N+]12CCC(CC1)C(OC(=O)C(O)(c1ccccc1)c1ccccc1)C2 (centres unmarked) [ONC0000315, clidinium bromide]",88.97%,–
"CC(C)CN(C[C@@H](O)[C@H](Cc1ccccc1)NC(=O)O[C@H]1CCOC1)S(=O)(=O)c1ccc(N)cc1 [ONC0003406, amprenavir]",51.58%,–
"Cc1ccc(NC(=O)C2(c3ccc4c(c3)OC(F)(F)O4)CC2)nc1-c1cccc(C(=O)O)c1 [ONC0004867, vx809 lumacaftor]",108.5%,–
"CC(C)(C)C#Cc1cc(N(C(=O)[C@H]2CC[C@H](C)CC2)[C@H]2CC[C@@H](O)CC2)c(C(=O)O)s1 [ONC0004853, lomibuvir vx222 vch222]",92.92%,–
Clc1ccccc1C(c1ccccc1)(c1ccccc1)n1ccnc1 [Clotrimazole],–,activity at 2 µM [2]: 4%; MIC [3]: 1 µM; MIC [4]: 1 µM; MIC [5]: 0.5 µM

Compound,% viability ([1]; m. mycetomatis hyphae),other results
"c1ccc2oc(C3=NCCN3)cc2c1 [ONC0002719, 2bfi]",76.35%,–
"COC(=O)[C@@H]1C[C@H](OC(C)=O)C(=O)[C@H]2[C@@]1(C)CC[C@H]1C(=O)O[C@H](c3ccoc3)C[C@]21C [ONC0003459, salvinorin a]",35.37%,–
"COc1ccc2c(O[C@@H]3C[C@H]4C(=O)N[C@]5(C(=O)NS(=O)(=O)C6CC6)C[C@H]5/C=C\CCCCN(C)C(=O)[C@@H]4C3)cc(-c3nc(C(C)C)cs3)nc2c1C [ONC0000991, simeprevir]",85.85%,–
Fc1ccc(C(c2ccccc2)(c2ccccc2F)n2ccnc2)cc1 (centres unmarked) [Flutrimazole],–,activity at 2 µM [2]: 0%; IC50 [3]: 0.92 µM; MIC [3]: 2 µM; IC50 [4]: 0.37 µM; MIC [4]: 0.5 µM; IC50 [5]: 0.42 µM; MIC [5]: 0.5 µM
gonadorelin acetate [ONC0002245],–,"% viability ([1]; primary screen, metabolic activity vs growth control, inhibitor): 141.9%"
"CC(C)OC(=O)C(C)NP(=O)(COC(C)Cn1cnc2c(N)ncnc21)Oc1ccccc1 (centres unmarked) [ONC0004548, tenofovir alafenamide gs7340]",45.02%,–
"O=P1(N(CCCl)CCCl)NCCCO1 (centres unmarked) [ONC0000336, cyclophosphamide]",62%,–
"Cc1sc2c(c1C)C(c1ccc(Cl)cc1)=N[C@@H](CC(=O)Nc1ccc(O)cc1)c1nnc(C)n1-2 [ONC0005184, otx015]",99.78%,–
"CCC1/C=C(\C)CC(C)CC(OC)C2OC(O)(C(=O)C(=O)N3CCCCC3C(=O)OC(/C(C)=C/C3CCC(O)C(OC)C3)C(C)C(O)CC1=O)C(C)CC2OC (centres unmarked) [ONC0004338, ascomycin fk520]",150.4%,–
"NC(=O)c1ccc(N(C(N)=O)c2c(F)cccc2F)nc1-c1ccc(F)cc1F [ONC0004787, vx702]",67.05%,–
"CCOP(=S)(OCC)Oc1cc(C)nc(C(C)C)n1 [ONC0003874, dimpylate]",60.75%,–
"CC(C)(C)c1cc(C(C)(C)C)c(NC(=O)c2c[nH]c3ccccc3c2=O)cc1O [ONC0004880, ivacaftor vx770]",126.9%,–
"CC(=O)Oc1ccccc1C(=O)Nc1ncc([N+](=O)[O-])s1 [ONC0002436, nitazoxanide]",87.75%,–
"CCC[C@H](NC(=O)[C@@H]1[C@H]2CCC[C@H]2CN1C(=O)[C@@H](NC(=O)[C@@H](NC(=O)c1cnccn1)C1CCCCC1)C(C)(C)C)C(=O)C(=O)NC1CC1 [ONC0004652, telaprevir vx950]",71.4%,–
"Cn1c(=O)n(-c2ccc(C(C)(C)C#N)cc2)c2c3cc(-c4cnc5ccccc5c4)ccc3ncc21 [ONC0005249, dactolisib bez235 nvpbez235]",133.4%,–
"O=C(O)[C@]1(Cc2cccc(Nc3nccs3)n2)CC[C@@H](Oc2cccc(Cl)c2F)CC1 [ONC0005246, mk5108 vx689]",132.5%,–
"CC(C)(C)c1ccc(-c2nc3ccccc3[nH]2)cc1 [ONC0004834, zln005]",87.04%,–
"O=C(O)CCCc1ccc(N(CCCl)CCCl)cc1 [ONC0000730, chlorambucil]",84.26%,–
"CCN(CC)C(C)C(=O)c1ccccc1 (centres unmarked) [ONC0002292, amfepramone]",71.71%,–
"O=C(Nc1nc2cccc(-c3ccc(CN4CCS(=O)(=O)CC4)cc3)n2n1)C1CC1 [ONC0001023, filgotinib]",70.26%,–
"O=c1ncn2nc(Sc3ccc(F)cc3F)ccc2c1-c1c(Cl)cccc1Cl [ONC0004865, vx745]",118.9%,–
"CCCC(C)C1(CC)C(=O)NC(=S)NC1=O (centres unmarked) [ONC0001983, thiopental]",75.11%,–
"CCO[C@H]1OC(=O)C[C@@H]1NC(=O)[C@@H]1CCCN1C(=O)[C@@H](NC(=O)c1ccc(N)c(Cl)c1)C(C)(C)C [ONC0004605, belnacasan vx765]",74.26%,–
